pEC50, pKi: −log10 of the molar value. Several values for one entry are separate records, joined by “and”; a condition that tells them apart may be missing. Equal values may be shown once. Read-outs that look alike come from different tables or passages of the source.
Experiments:
[1] = molecular target: T1, MT1 (Homo sapiens, UniProt P48039); assay: Overall functionality from the signaling pathway panel
[2] = molecular target: T2, MT2 (Homo sapiens, UniProt P49286); assay: HTRF cAMP assay, agonist mode cAMP; assay type: cell-based; settings: for Emax, cAMP (+): hMT2, inhibition of cAMP production, normalization vs melatonin
T2 sequence (P49286 1-362): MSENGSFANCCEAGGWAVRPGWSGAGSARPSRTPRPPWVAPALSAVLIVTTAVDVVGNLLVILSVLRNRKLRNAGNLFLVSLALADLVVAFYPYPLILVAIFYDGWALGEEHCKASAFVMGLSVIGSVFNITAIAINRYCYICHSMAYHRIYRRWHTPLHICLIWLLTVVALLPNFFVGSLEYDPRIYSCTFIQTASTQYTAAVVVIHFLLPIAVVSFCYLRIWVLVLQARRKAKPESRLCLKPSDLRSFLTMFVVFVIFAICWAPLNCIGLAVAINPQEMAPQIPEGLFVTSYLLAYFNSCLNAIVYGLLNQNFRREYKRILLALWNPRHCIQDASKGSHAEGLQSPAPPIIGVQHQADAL

[3] = molecular target: T3, human MT1 (hMT1) (Homo sapiens, UniProt P48039); assay: 2-[125I]-iodomelatonin competition binding, CHO-K1 membranes
T3 sequence (P48039 whole entry): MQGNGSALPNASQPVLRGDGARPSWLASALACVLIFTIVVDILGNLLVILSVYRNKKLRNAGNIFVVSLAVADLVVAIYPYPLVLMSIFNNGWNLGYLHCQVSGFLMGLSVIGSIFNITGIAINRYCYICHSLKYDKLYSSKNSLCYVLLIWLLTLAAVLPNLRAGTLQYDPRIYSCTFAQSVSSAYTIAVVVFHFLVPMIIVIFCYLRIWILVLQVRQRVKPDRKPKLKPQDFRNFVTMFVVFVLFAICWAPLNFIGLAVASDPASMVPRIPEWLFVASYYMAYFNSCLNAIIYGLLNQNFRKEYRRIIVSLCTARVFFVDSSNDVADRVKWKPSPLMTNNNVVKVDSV

[4] = molecular target: T2, MT2; assay: HTRF cAMP assay, antagonist mode cAMP; assay type: cell-based
[5] = molecular target: T4, human MT2 (hMT2) (Homo sapiens, UniProt P49286); assay: 2-[125I]-iodomelatonin competition binding, CHO-K1 membranes
T4 sequence (P49286 1-362): T2 sequence (P49286 1-362)

[6] = molecular target: T2, MT2; assay: Overall functionality from the signaling pathway panel
[7] = molecular target: T3, human MT1 (hMT1); assay: [35S]-GTPγS binding, agonist mode GTPγS; assay type: biochemical
[8] = molecular target: T2, MT2; assay: β-arrestin recruitment, PathHunter CHO-K1 cells; assay type: cell-based
[9] = molecular target: T2, MT2; assay: Receptor internalization, U2O-S cells; assay type: cell-based; settings: for receptor internalization: MT2
[10] = molecular target: T1, MT1; assay: Receptor internalization, DLD-1 cells; assay type: cell-based
[11] = molecular target: T1, MT1; assay: HTRF cAMP assay, agonist mode cAMP; assay type: cell-based; settings: inhibition of cAMP production, normalization vs melatonin
[12] = molecular target: T1, MT1; assay: β-arrestin recruitment, PathHunter CHO-K1 cells; assay type: cell-based
[13] = molecular target: T4, human MT2 (hMT2); assay: [35S]-GTPγS binding, agonist mode GTPγS; assay type: biochemical
[14] = molecular target: T3, human MT1 (hMT1); assay: [35S]-GTPγS binding, antagonist mode GTPγS; assay type: biochemical
[15] = molecular target: T1, MT1; assay: Cellular dielectric spectroscopy; assay type: cell-based; settings: MT1
[16] = molecular target: T2, MT2; assay: Cellular dielectric spectroscopy; assay type: cell-based; settings: MT2
[17] = molecular target: T4, human MT2 (hMT2); assay: [35S]-GTPγS binding, antagonist mode GTPγS; assay type: biochemical
[18] = MT1 Affinity (pKi), against 2-[125I]iodomelatonin

T1 sequence (P48039 whole entry): as above

Row | Compound | MT1 Our data (functionality) [1] | pKi [3, 18] | pKi [5] | MT2 Our data (functionality) [6] | receptor internalization [9] | also measured
1 | CCC(=O)NC1Cc2ccccc2C(c2ccccc2)C1 (centres unmarked) [4P‐PDOT, 4‐phenyl‐2‐propionamidotetraline, reference compound] | partial ago | 6.85 | 8.97 | partial ago |  | Emax, cAMP (+) [2]: ~90% and 100%; pEC50 ([2]; pEC50, cAMP production inhibition, MT2, text): 8.70; pKi ([3]; affinity for MT1, order of magnitude given in text): ~7.00; antagonism in cAMP assay ([4]; MT2): completely inactive; induction of GTPγS binding [7]: does not induce GTPγS binding
2 | COc1ccc2cccc(CCNC(C)=O)c2c1 [Agomelatine, N‐[2‐(7‐methoxynaphthalen‐1‐yl)ethyl]acetamide, reference compound] | ago |  |  | ago |  | MT1 Our data (functionality) ([1]; listed as S20098): agonists; MT2 Our data (functionality) ([6]; listed as S20098): agonists
3 | CC(=O)NCCc1c(Cc2ccccc2)[nH]c2ccccc12 [Luzindole, N‐acetyl‐2‐benzyltryptamine, reference compound] | antago | 6.59 |  | partial ago | induces the internalization | Emax, cAMP (+) [2]: 70%; Emax ([4]; read-out: Emax, cAMP (−)): 55%; β-arrestin recruitment [8]: does not recruit; pEC50 [9]: ~8.00
4 | COc1ccc2[nH]cc(CCNC(C)=O)c2c1 [Melatonin, N‐acetyl‐5‐methoxytryptamine, reference compound] | ago |  |  |  |  | 
5 | COc1ccc2cccc(C(CO)CNC(=O)CF)c2c1 (centres unmarked) [S75436, 2‐fluoro‐N‐[3‐hydroxy‐2‐(7‐methoxy‐1‐naphthyl)propyl]acetamide] | agonists and ago |  | 8.95 | agonists and ago |  | pKi [3]: 8.04
6 | COc1ccc2c(c1)C(CNC(N)=O)Cc1ccccc1C2 (centres unmarked) [S77840, 1‐[(8‐methoxy‐10,11‐dihydro‐5H‐dibenzo[a,d]‐[7]annulen‐10‐yl)methyl]urea] |  |  |  |  | lack of capacity to provoke internalization | receptor internalization [10]: lack of capacity to provoke internalization; cell shape shift, CellKey [16]: failed to elicit any significant shift in shape
7 | COc1ccc2[nH]cc(CCNC(=O)CI)c2c1 [SD6, N‐[2‐(5‐methoxy‐1H‐indol‐3‐yl)ethyl] iodoacetamide] | agonists and ago |  |  | agonists and ago |  | 
8 | methoxyverapamil [D600, reference compound] | antago |  |  |  | did not induce | receptor internalization [10]: did not induce; β-arrestin recruitment [12]: did not induce; MT1 Affinity (pKi) ([3]; against 2-[125I]iodomelatonin): 7 and 7.04; MT2 Affinity (pKi) ([5]; against 2-[125I]iodomelatonin): <6; β-arrestin recruitment [8]: did not induce

Further lines, with some results ahead:

Row | MT1 Our data (functionality) [1] | pKi [3, 18] | pKi [5] | MT2 Our data (functionality) [6] | receptor internalization [9] | Compound | also measured
9 |  | 6.77 |  |  | does not induce internalization | O=C(NCCc1cccc2ccccc12)C1CCC1 [S20928, (N‐[2‐(1‐naphthyl)ethyl]cyclobutanecarboxamide)] | receptor internalization [10]: does not induce internalization; Emax, cAMP (+) [2]: 50%; Emax, cAMP (+) [11]: less than 25%; β-arrestin recruitment [12]: capacity to recruit; induction of GTPγS binding [13]: induces the binding of GTPγS; inhibition of melatonin-induced GTPγS binding [14]: fully inhibits; cell shape shift, CellKey [15]: failed to elicit any significant shift in shape; concentration of maximal effect (CellKey) [16]: ~100 nmol/L; inhibition of melatonin-induced GTPγS binding [17]: slightly inhibits
10 | agonists | 6.22 | 6.22 | agonists and ago | not enough to elicit internalization | COc1ccc2ncn(CCNC(C)=O)c2c1 [S21278, N‐[2‐(6‐methoxy‐benzimidazol‐1‐yl)ethyl]acetamide] | β-arrestin recruitment [12]: complete recruitment
11 | partial ago | 8.01 | 8.10 | ago |  | CCc1ccc2scc(CCNC(C)=O)c2c1 [S22153, N‐[2‐(5‐ethylbenzothiophen‐3‐yl)ethyl]acetamide] | 
12 | agonists and ago | 8.92 |  | agonists and ago | exhibited subsequent internalization | COc1cc2c(CCNC(C)=O)c(I)[nH]c2cc1[N+](=O)[O-] [S27128, N‐[2‐(2‐iodo‐5‐methoxy‐6‐nitro‐1H‐indol‐3‐yl)ethyl]acetamide] | receptor internalization [10]: exhibited subsequent internalization
13 | partial ago | 8.36 | 8.11 |  |  | COCC(CNC(C)=O)c1cccc2ccc(OC)cc12 (centres unmarked) [S73893, N‐[3‐methoxy‐2‐(7methoxy‐ 1‐naphthyl)propyl]acetamide] | 
14 | agonists and ago | 8.84 | 8.61 | agonists and ago |  | COc1cc2c(CCNC(C)=O)c[nH]c2cc1I [SD1881, N‐[2‐(6‐iodo‐5‐methoxy‐1H‐indol‐3‐yl)ethyl]acetamide] | 
15 | partial ago | 7.76 | 7.99 | ago |  | COc1ccc2[nH]cc(CCNC(C)=O)c2c1I [SD1882, N‐[2‐(4‐iodo‐5‐methoxy‐1H‐indol‐3‐yl)ethyl] acetamide] | concentration of maximal effect (CellKey) [15]: ~100 nmol/L
16 | partial ago | 7.34 | 7.32 | ago |  | COc1cc(I)c2[nH]cc(CCNC(C)=O)c2c1 [SD1918, N‐[2‐(7‐iodo‐5‐methoxy‐1H‐indol‐3‐yl)ethyl]acetamide] | 

From publication PMC6935685 (Pharmacology Research & Perspectives, 2019)
